How the values were obtained:
REC-1 T474I cell lines = experiment: Cell proliferation assay REC-1 BTK T474I knock-in cells (ATPlite, 72 hours); type: cell-based; details: Homo sapiens, Rec1; 72 hours; read-out: IC50 REC-1 T474I
Procedure, shortened: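 REC-1 cells carrying CRISPR knock-in mutant BTK, single-cell cloned and sequence-confirmed, were exposed to compound for 72 h and read by ATPlite luminescence. Percentage growth was calculated against the signal at the start of incubation and against untreated 0.3% DMSO wells as maximum growth.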

wt-BTK = wt-BTK (Homo sapiens (Human), UniProt Q06187); experiment: Binding kinetics measurements (Surface Plasmon Resonance) on wt-BTK; details: for Kd: binding affinity by Surface Plasmon Resonance (SPR); for Tau (h) wt-BTK (Act): target residence time, SPR
wt-BTK, sequence (Q06187 whole entry): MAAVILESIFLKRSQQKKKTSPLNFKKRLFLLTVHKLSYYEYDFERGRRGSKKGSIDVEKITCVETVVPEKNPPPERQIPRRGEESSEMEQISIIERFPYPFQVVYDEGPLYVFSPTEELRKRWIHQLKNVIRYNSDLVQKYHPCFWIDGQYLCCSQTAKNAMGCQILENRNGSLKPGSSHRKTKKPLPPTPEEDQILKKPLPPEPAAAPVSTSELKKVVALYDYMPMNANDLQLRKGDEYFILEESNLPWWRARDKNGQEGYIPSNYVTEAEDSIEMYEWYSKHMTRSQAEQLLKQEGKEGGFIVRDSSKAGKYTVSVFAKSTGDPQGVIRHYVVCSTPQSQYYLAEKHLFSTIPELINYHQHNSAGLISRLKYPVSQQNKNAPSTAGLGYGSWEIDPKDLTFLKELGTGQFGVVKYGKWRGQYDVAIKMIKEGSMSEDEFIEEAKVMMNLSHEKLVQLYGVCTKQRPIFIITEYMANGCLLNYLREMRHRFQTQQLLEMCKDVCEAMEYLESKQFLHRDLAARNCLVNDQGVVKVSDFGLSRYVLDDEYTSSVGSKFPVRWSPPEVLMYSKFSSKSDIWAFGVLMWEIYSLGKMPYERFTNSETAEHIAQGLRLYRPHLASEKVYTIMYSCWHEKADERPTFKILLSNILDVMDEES
Procedure, shortened: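 Constants (ka, kd, KD) are geometric means of duplicates from single cycle SPR at 22° C, with compound at 3.16-316 nM in five steps. Residence time for induced-fit binders derived per a two-state model.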

[1] = system: wt-BTK, BTK C481S, BTK T474I and BTK C481S/T474I expressing 293 cells; experiment: Cell based washout, pBTK (Tyr223) Western blot; set-up: species or system human; details: 1000 nM compound 2 hours, washed twice, harvested 0-24 hours; also cell lines expressing mutant BTK
Description: In vitro cellular (mutant) BTK inhibition, and inhibitor wash-out Generation of human wt-BTK, BTK C481S, BTK T474I, and BTK C481S/T474I expressing GripTite 293 MSR cells.
GripTite 293 MSR cells (Thermo Fisher, cat. no. R79507), here after referred to as 293 cells, were cultured in DMEM/F-12, GIutaMAX™ supplement medium (Thermo Fisher cat. no. 10565018) supplemented with 1% Penicilline/Streptomycine (Thermo Fisher cat. no. 15140122) 10% fetal bovine serum (Biowest, cat. no. Si181 0-500), 1× MEM Non-Essential Amino Acids (Thermo Fisher cat. no. 11140050) and 50 μg/ml Geneticin (Thermo Fisher cat. no. 10131035). Cells were transfected, with pEF6/V5-HisB (Thermo Fisher cat. no. V96120) expression vectors containing either full-length wildtype-BTK (canonical sequence NM_000061), BTK C481 S, BTK T474I or BTK C481 S/T474I (BaseClear) using Lipofectamine™ 3000 (Invitrogen). Because the stop codon at the end of the coding sequence of BTK has been conserved, the His-tag present in the expression vector is not being used. Immediately after transfection, cells were cultured in medium without Geneticin, and after 24 hours 50 μg/ml geneticin was added. 48 hours after transfection, medium was removed and replaced by medium containing both geneticin (50 μg/ml) and blasticidin (10 μg/ml) S HCl (Thermo Fisher, cat. no. A1113903). The resulting transfectants were cultured under blasticidin selection pressure for 18-35 passages to obtain stable wild-type BTK (wt-BTK), BTK C481S, BTK T474I, and BTK C481 S/T474I expressing cell pools. Stability of the (mutant) BTK expression in the 293 cell pools was confirmed by poly-acrylamide gel electrophoresis followed by Western blotting (FIG. 1A). […] For both experiments 10 μg of protein was separated on 4-12% Bis-Tris polyacrylamide gels.
Wild-type BTK, BTK C481S, BTK T474I or BTK C481 S/T474I expressing 293 cells were lysed in lysis buffer supplemented with protease inhibitors (Merck, cat. no. P8340) and phosphatase inhibitors (Thermo Fisher, cat. no. 78426). The protein concentration was determined with a Pierce BCA protein assay kit (Thermo Fisher, cat. no. 23227). Lysates were diluted to a concentration of 1 μg/μl in NuPage® LDS Sample Buffer (Thermo Fisher, cat. no. NP0008) with 167 mM DTT (Acros Organics, cat. no. 10686841) and denatured for 5 minutes at 95° C. The samples (10 μg protein) were, together with a pre stained protein ladder (Thermo Fisher, cat. no. 26616), separated on 4-12% Bis-Tris polyacrylamide gels (Thermo Fisher, cat. no. NP0324BOX). Separated protein was subsequently transferred, in methanol free transfer buffer (Thermo Fisher, cat. no. 35045), to a nitrocellulose membrane (Thermo Fisher, cat. no. 88018). Blots were first immunologically stained with phospho-BTK (Tyr223) rabbit mAb (Cell Signaling, cat. no. 5082S), and beta-actin rabbit mAb (Cell Signaling, cat. no. 4967S), followed by peroxidase conjugated goat anti-rabbit IgG (Cell Signaling, cat. no. 7074S). Afterwards, antibodies were removed using Western-blot stripping buffer (Thermo Fisher cat. no. 46428) and staining was repeated with a (total-)BTK mouse mAb (Abnova, cat. no. MAB0798), followed by peroxidase conjugated horse anti-mouse IgG (Cell Signaling, cat. no. 7076S). For all blots the colour development was performed with ECL horseradish peroxidase substrate (BioRad, cat. no. 170-5060).
Wild-type BTK, BTK C481S, BTK T474I, and BTK C481 S/T474I expressing 293 cells were growing exponentially when seeded in culture medium, without blasticidin, at a density of 2,000,000 cells/4 ml/well, in 25 cm^2 cell culture flasks (Greiner Bio-one, cat. no. 690175). Flasks were placed in a 37° C. C02-incubator for 16-24 hours after which 1 ml culture medium containing 5000 nM of the compound of Example 46 or Example 201, or Example 184, or Example 204, or Example 45 or (+/−) Loxo-305, or 0.05% DMSO (no compound) was added. 2 hours after addition of the inhibitors (0h) cells are either collected or washed twice with 5 ml culture medium. […]

Row | Structure (SMILES) | IC50 (REC-1 T474I cell lines) [nM] | Kd (wt-BTK) [nM] | Tau (h) wt-BTK (Act) (wt-BTK) [h] | time for which level of phosphorylated BTK (pBTK (Tyr223)) is prohibited or reduced after wash-out [1]
1 | Nc1ncc2c3c1c(-c1ccc(C(=O)Nc4cc(C(F)(F)F)ccn4)cc1)nn3[C@@H]1CCC[C@H](C1)NC(=O)CCOC/C=C/2 [Example 25] | < 100 | < 5 | 9.45 | at least 6 hours
2 | C[C@@H]1CC(=O)N[C@@H]2CCC[C@H](C2)n2nc(-c3ccc(C(=O)Nc4cc(C(F)(F)F)ccn4)cc3)c3c(N)ncc(c32)/C=C/CCN1 [Example 45] | < 100 | < 5 | 4.42 | at least 6 hours
3 | N#Cc1ccnc(NC(=O)c2ccc(-c3nc4n5c(cnc(N)c35)/C=C/CCCCCC(=O)N[C@@H]3CCC[C@@H]4C3)cc2)c1 [Example 184] | < 100 | – | 5.55 | at least 6 hours
4 | N#Cc1ccnc(NC(=O)c2ccc(-c3nc4n5c(cnc(N)c35)/C=C/CCOCCC(=O)N[C@@H]3CC[C@@H]4C3)cc2)c1 [Example 201] | < 100 | – | 10.14 | at least 6 hours
5 | N#Cc1ccnc(NC(=O)c2ccc(-c3nc4n5c(cnc(N)c35)/C=C/CCCCCC(=O)N[C@@H]3CC[C@@H]4C3)cc2)c1 [Example 204] | < 100 | – | 5.64 | at least 6 hours

— patent US20250074911A1, “MACROCYCLIC BTK INHIBITORS” (Crossfire Oncology Holding B.V., priority 2021, published 2025)
